Experimental data reported in patent publication US20220289794A1, “SYNTHETIC ANTIMICROBIAL PEPTIDES” (priority 2019, published 2022).

Columns and labels:
B. cereus (ATCC-13061) = assay: Broad-spectrum activity against Gram-Positive bacteria (MIC); assay type: cell-based; parameters: unit not given here
B. subtilis (ATCC-6633) = assay: as above; assay type: cell-based; parameters: unit not given here
[1] = system: Streptococcus pneumoniae ATCC 51938; settings: S. pneumoniae ATCC 51938
[2] = system: Enterococcus faecalis ATCC 51575; settings: E. faecalis ATCC 51575
S. aureus ATCC 29213 = settings: S. aureus ATCC 29213
[3] = system: Methicillin-resistant Staphylococcus aureus MRSA (ATCC BAA-1556); settings: MRSA ATCC BAA-1556
[4] = system: Klebsiella pneumoniae ATCC 13883; settings: Table 16, Gram-negative panel
[5] = system: A. baumannii (ATCC BAA-1605); assay: Broad-spectrum activity against Gram-Negative bacteria (MIC); assay type: cell-based; settings: Table 16, Gram-negative panel
[6] = system: Pseudomonas aeruginosa (ATCC 27883); settings: P. aeruginosa ATCC 27883
E. coli (ATCC BAA-2452) = assay: Broad-spectrum activity against Gram-Negative bacteria (MIC); assay type: cell-based; settings: Table 16, Gram-negative panel
[7] = system: Enterococcus faecium ATCC 700221; settings: E. faecium ATCC 700221
[8] = system: Klebsiella pneumoniae (ATCC BAA-1705); settings: Table 16, Gram-negative panel
[9] = system: P. aeruginosa (ATCC BAA-1744); assay: Broad-spectrum activity against Gram-Negative bacteria (MIC); assay type: cell-based; settings: Table 16, Gram-negative panel
[10] = system: Enterococcus faecalis ATCC 29212; settings: E. faecalis ATCC 29212
[11] = system: Enterococcus faecium ATCC 27270; settings: E. faecium ATCC 27270
[12] = system: Escherichia coli (ATCC 25922); settings: E. coli ATCC 25922
[13] = system: Streptococcus pneumoniae ATCC 49619; settings: S. pneumoniae ATCC 49619
[14] = system: P. aeruginosa (ATCC 10145); assay: Broad-spectrum activity against Gram-Negative bacteria (MIC); assay type: cell-based; settings: Table 16, Gram-negative panel

Substance | Broad-spectrum activity B. cereus (ATCC-13061) (B. cereus (ATCC-13061)) | Broad-spectrum activity B. subtilis (ATCC-6633) (B. subtilis (ATCC-6633)) | Broad-spectrum activity S. pneumoniae (ATCC 51938) [1] | Broad-spectrum activity E. faecalis (ATCC 51575) [2] | MIC S. aureus ATCC 29213 (S. aureus ATCC 29213) [µg/mL] | MIC MRSA ATCC BAA-1556 [3] [µg/mL] | MIC K. pneumonia (ATCC 13883) [4] [µg/mL] | MIC A. baumannii (ATCC BAA-1605) [5] [µg/mL] | MIC P. aeruginosa ATCC 27883 [6] [µg/mL] | MIC E. coli (ATCC BAA-2452) (E. coli (ATCC BAA-2452)) [µg/mL] | Broad-spectrum activity E. faecium (ATCC 700221) [7] | MIC K. pneumonia (ATCC BAA-1705) [8] [µg/mL] | MIC P. aeruginosa (ATCC BAA-1744) [9] [µg/mL] | Broad-spectrum activity E. faecalis (ATCC 29212) [10] | Broad-spectrum activity E. faecium (ATCC 27270) [11] | MIC E. coli ATCC 25922 [12] [µg/mL] | Broad-spectrum activity S. pneumoniae (ATCC 49619) [13] | MIC P. aeruginosa (ATCC 10145) [14] [µg/mL]
c[Arg-Arg-Arg-Arg-Dip-Trp-dip] [IFX-088] | 6.2 | 1.5 | 12.5 | 12.5 | 3.1 | 3.1 | 50 | 12.5 | 12.5 | 12.5 | 12.5 | 25 | 50 | 12.5 | 3.1 | 12.5 | 25 | 25
c[arg-arg-Arg-Arg-naI-trp-naI] [IFX-138] | 6.2 | 3.1 | 25 | 6.2 | 1.5 | 3.1 | 50 | 25 | 32 | 12.5 | 6.2 | 50 | 50 | 6.2 | 3.1 | 16 | 50 | 50
c[Arg-arg-Arg-Arg-Dip-Dip-Dip] [IFX-065] | 3.1 | 1.5 | 12.5 | 12.5 | 3.1 | 1.5 | 50 | 6.2 | 12.5 | 6.2 | 3.1 | 12.5 | 12.5 | 6.2 | 3.1 | 12.5 | 25 | 12.5
c[arg-arg-arg-arg-dip-Trp-dip] [IFX-095] | 3.1 | 1.5 | 12.5 | 12.5 | 3.1 | 3.1 | 50 | 12.5 | 12.5 | 25 | 6.2 | 12.5 | 25 | 6.2 | 3.1 | 12.5 | 50 | 25
c[Arg-Arg-Arg-Arg-Dip-trp-Dip] [IFX-089] | 12.5 | 3.1 | 25 | 12.5 | 3.1 | 3.1 | 50 | 12.5 | 12.5 | 12.5 | 12.5 | 25 | 25 | 12.5 | 6.2 | 12.5 | 50 | 25
c[Arg-Arg-arg-Arg-Dip-Dip-Dip] [IFX-064] | 3.1 | 1.5 | 25 | 12.5 | 3.1 | 3.1 | 50 | 6.2 | 12.5 | 6.2 | 1.5 | 12.5 | 25 | 6.2 | 3.1 | 12.5 | 50 | 25
c[Arg-Arg-Arg-Arg-Dip-dip-Dip] [IFX-061] | 3.1 | 1.5 | 12.5 | 12.5 | 3.1 | 1.5 | 50 | 6.2 | 12.5 | 12.5 | 3.1 | 25 | 12.5 | 6.2 | 3.1 | 12.5 | 50 | 25
c[Arg-arg-Arg-Arg-Dip-Trp-Dip] [IFX-093] | 6.2 | 1.5 | 25 | 12.5 | 3.1 | 3.1 | 50 | 12.5 | 12.5 | 6.2 | 6.2 | 12.5 | 25 | 12.5 | 6.2 | 12.5 | 50 | 25
c[arg-Arg-arg-Arg-dip-Trp-dip] [IFX-096] | 6.2 | 3.1 | 25 | 12.5 | 3.1 | 3.1 | 50 | 25 | 6.2 | 12.5 | 6.2 | 25 | 50 | 12.5 | 3.1 | 6.2 | 25 | 50
c[arg-arg-arg-arg-dip-trp-dip] [IFX-101] | 6.2 | 1.5 | 12.5 | 12.5 | 3.1 | 3.1 | > 50 | 12.5 | 25 | 25 | 12.5 | 25 | 25 | 12.5 | 3.1 | 12.5 | 50 | 50
